Values joined by “and” are separate entries in the source; they are usually repeats but may differ in a detail not shown here. Equal entries are not always repeated.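 Results reflect a 48-hour exposure of cells in 96-well plates to compound at five concentrations. The concentration for 50% growth inhibition is given as GI50. Definition used: TGI = concentration required for complete inhibition of growth.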
What was measured:
Experiment in all cases: NCI anticancer screen, dose series, 48 h
HL-60(TB) leukemia = system: HL-60(TB) leukemia
SN12C renal = system: SN12C renal
SK-OV-3 ovarian = system: SK-OV-3 ovarian
HOP-62 NSCLC = system: HOP-62 NSCLC
CCRF-CEM leukemia = system: CCRF-CEM leukemia
KM12 colon = system: KM12 colon
NCI-H460 lung = system: NCI-H460 lung
OVCAR-4 ovarian = system: OVCAR-4 ovarian
HOP-92 NSCLC = system: HOP-92 NSCLC
SK-MEL-28 melanoma = system: SK-MEL-28 melanoma

Row | SMILES | GI50 (HL-60(TB) leukemia) | TGI (HL-60(TB) leukemia) [µM] | GI50 (SN12C renal) | TGI (SN12C renal) [µM] | GI50 (SK-OV-3 ovarian) | TGI (SK-OV-3 ovarian) [µM] | GI50 (HOP-62 NSCLC) | TGI (HOP-62 NSCLC) [µM] | GI50 (CCRF-CEM leukemia) | TGI (CCRF-CEM leukemia) [µM] | GI50 (KM12 colon) | TGI (KM12 colon) [µM] | GI50 (NCI-H460 lung) [nM] | TGI (NCI-H460 lung) [µM] | GI50 (OVCAR-4 ovarian) [µM] | TGI (OVCAR-4 ovarian) [µM] | TGI (HOP-92 NSCLC) | TGI (SK-MEL-28 melanoma) [µM] | GI50 (HOP-92 NSCLC) | GI50 (SK-MEL-28 melanoma)
1 | COc1ccc2c(c1)N(CCO)C1=C(C(=O)OC1)C2c1cccc(Br)c1 (stereo not given) | 67.1 nM | 0.601 | 450 nM | > 88.1 | 0.0913 µM | 19 | 132 nM | > 76.3 | 217 nM | > 100 | 48.9 nM | 5.05 | 47.7 | 5.05 | 0.123 | > 100 | – | – | – | –
2 | O=C(/C=C/c1ccc2c(c1)OCO2)c1ccccc(=O)c1O | – | – | – | > 100 | – | – | – | > 100 | – | 3.93 | – | 26.1 | – | 41.7 | – | > 100 | 72.9 µM | 90.4 | – | –
3 | COc1ccc(/C=C2\CCCC3=C2N=C2SC=NN2C3c2ccc(OC)c(OC)c2)cc1OC (stereo not given) | 22200 nM | 78 | 18200 nM | > 100 | 56.4 µM | > 100 | 24300 nM | > 100 | 6160 nM | > 100 | 11800 nM | > 100 | 22400 | > 100 | – | – | 58.9 µM | > 100 | 11.6 µM | 19.3 µM
4 | COc1ccc2c(c1)c(=O)oc1cc(OC/C(=N\O)c3ccc(F)cc3)ccc12 | – | – | 16900 nM | 34.3 | 30.4 µM | > 100 | 18900 nM | 41.8 | 7070 nM | > 100 | 19700 nM | 43.8 | 18600 | 53.3 | 18.5 | 44.5 | 72.2 µM | 31 | 24.9 µM | 15.7 µM
5 | O=c1nc2[nH]nc(-c3ccccc3)c2n[nH]1 | – | > 100 | – | > 100 | – | – | – | > 100 | – | > 100 | – | > 100 | – | > 100 | – | > 100 | – | > 100 | – | –
6 | O=C1CC23CC(=O)CC2(C1)c1ccccc1C3=O (stereo not given) | – | > 100 | – | > 100 | – | > 100 | – | > 100 | – | > 100 | – | > 100 | – | > 100 | – | – | – | > 100 | – | –
7 | COC(=O)CCC(=O)C(C#N)c1ccc(Cl)cc1Cl (stereo not given) | – | > 100 | – | > 100 | – | > 100 | – | – | – | > 100 | – | > 100 | – | – | – | – | > 100 µM | > 100 | – | –
8 | Nc1nn(C(=O)Nc2ccc(Cc3ccccc3)cc2)c2ccccc12 | 466 nM | 15.2 | 12900 nM | 28 | 36.9 µM | > 100 | 13700 nM | 46.5 | – | – | 2940 nM | > 100 | 409 | 13 | 10.7 | 40.4 | 42.6 µM | > 100 | 14.2 µM | 11.5 µM
9 | O=c1[nH]c(C2CCCCC2)nc2cc(Cl)ccc12 | – | – | – | > 100 | – | > 100 | – | – | – | – | – | > 100 | – | – | – | > 100 | 94.3 µM | > 100 | – | –
10 | COC(=O)[C@]1(C)CCC[C@]2(C)C3CC4OOC3(C=C4C(C)C)CCC21 (stereo not given in full) | – | 4.15 | – | 31.7 | – | 34.4 | – | 61.5 | – | 14 | – | 32.4 | – | 25.7 | – | 45.7 | – | – | – | –
11 | C/C(CC(=O)Nc1ccc([N+](=O)[O-])cc1)=N/N=C(N)N | – | > 100 | – | – | – | > 100 | – | > 100 | – | > 100 | – | > 100 | – | > 100 | – | – | > 100 µM | > 100 | – | –
12 | C[C@H]1[C@H](C)CC[C@]2(C(=O)O)CC[C@]3(C)C(=CC[C@@H]4[C@@]5(C)CC[C@H](OC(=O)/C=C\c6ccc(O)cc6)C(C)(C)[C@@H]5CC[C@]43C)[C@H]12 | – | – | 1670 nM | 6.76 | 11.9 µM | 26.5 | 2260 nM | 12.8 | – | – | – | – | 2230 | 10.9 | 10.6 | 28.8 | 19.2 µM | 57 | 4.25 µM | 18 µM
13 | Cc1cc(NC(=O)C(=O)Cc2nc3ccccc3s2)ccc1Cl | – | – | – | > 100 | – | > 100 | – | > 100 | – | > 100 | – | > 100 | – | > 100 | – | > 100 | > 100 µM | > 100 | – | –
14 | COc1cc2c(/C=C3/C(=O)Nc4c3ccc3ccccc43)c(Cl)[nH]c2cc1C | 11.5 nM | 0.661 | 71 nM | > 19.6 | 0.0364 µM | > 50 | 14.4 nM | 4.08 | – | – | 12.4 nM | – | 24.4 | > 21.8 | – | – | > 31.1 µM | > 50 | – | 17.3 µM
15 | O=C1/C(=c2\c3ccccc3n3c(=O)c4ccccc4nc23)Nc2ccccc21 | – | – | – | > 100 | – | > 100 | – | > 100 | – | > 100 | – | > 100 | – | > 100 | – | > 100 | > 100 µM | > 100 | – | –
16 | COC(=O)C12OCC34C(CC5C(C)=CC(=O)C(O)C5(C)C3C(O)C1O)OC(=O)C(OC(=O)CC(C)C)C24 (stereo not given) | < 41.7 nM and 50 nM | – | 82.9 nM and 50 nM | – | 0.3 µM and 0.05 µM | – | 43.9 nM and 50 nM | – | < 50.3 nM and 50 nM | – | 51.1 nM and 50 nM | – | – | – | – | – | 0.0174 µM and 0.119 µM and 0.0651 µM | – | 0.0442 µM and 0.05 µM | < 0.0352 µM and 0.05 µM
17 | COC(=O)C1CCc2nnc(-c3cccnc3)n21 (stereo not given) | – | > 100 | – | > 100 | – | > 100 | – | > 100 | – | > 100 | – | > 100 | – | > 100 | – | > 100 | – | > 100 | – | –
18 | CC(C)(C)C1CCN(C(=O)c2ccccc2)CC1 | – | > 100 | – | > 100 | – | > 100 | – | > 100 | – | > 100 | – | > 100 | – | > 100 | – | – | – | – | – | –
19 | COC1=CC(=O)C2[C@H]3Cc4ccccc4[C@H]3C2(C)C1=O (stereo not given in full) | – | – | – | – | – | > 100 | – | > 100 | – | > 100 | – | > 100 | – | > 100 | – | > 100 | > 100 µM | > 100 | – | –
20 | Cn1c2ccccc2c(=S)c2cc(NC(=O)CCCCC(=O)Nc3ccc4c(c3)c(=S)c3ccccc3n4C)ccc21 | – | – | – | > 100 | – | > 100 | – | > 100 | – | > 100 | – | > 100 | – | > 100 | – | – | > 100 µM | > 100 | – | –
